# Results reported in ChEMBL document CHEMBL3885881, “DrugMatrix”.
# Species on record: Rattus norvegicus
# Test: DrugMatrix - Regimen: Daily Repeat
# Format: toxicity, organism-based, Sprague-Dawley
# Parameters: regimen Daily Repeat, gender Male, age 6-8 weeks
# Details: in vivo, po, route oral GAVAGE, […]; for HEMOGLOBIN / LYMPHOCYTE / MEAN CORPUSCULAR HEMOGLOBIN CONCENTRATION / MEAN CORPUSCULAR VOLUME / NUCLEATED RED BLOOD CELLS / PLATELET COUNT / ABSOLUTE BASOPHIL / ABSOLUTE EOSINOPHIL / ABSOLUTE LYMPHOCYTE / ABSOLUTE MONOCYTE / ABSOLUTE SEGMENTED NEUTROPHIL / BASOPHIL / EOSINOPHIL / ERYTHROCYTE COUNT / HEMATOCRIT: tissue Blood; for ALANINE AMINOTRANSFERASE / ALBUMIN / ALKALINE PHOSPHATASE / ASPARTATE AMINOTRANSFERASE / BLOOD UREA NITROGEN / CARBON DIOXIDE / CREATINE PHOSPHOKINASE / CREATININE / LACTATE DEHYDROGENASE / TOTAL BILIRUBIN / TOTAL PROTEIN / URIC ACID: tissue Plasma
# [1] = 215 mg/kg, 72 h, dose level M2, time 3 day
# [2] = 215 mg/kg, 120 h, dose level M2, time 5 day
# [3] = 430 mg/kg, 72 h, dose level M3, time 3 day
# [4] = 430 mg/kg, 120 h, dose level M3, time 5 day
# [5] = 860 mg/kg, 72 h, dose level High, time 3 day
# [6] = 860 mg/kg, dose level High, time 7 day
structure (smiles),measurement,setting,value
CC(C)OC(=O)C(C)(C)Oc1ccc(C(=O)c2ccc(Cl)cc2)cc1 [FENOFIBRATE],HEMOGLOBIN,[1],13.3 G/DL
same,LYMPHOCYTE,[1],89.67%
same,MEAN CORPUSCULAR HEMOGLOBIN CONCENTRATION,[1],39.2 G/DL
same,MEAN CORPUSCULAR VOLUME,[1],61.5 fL
same,NUCLEATED RED BLOOD CELLS,[1],0 /100WBC
same,PLATELET COUNT,[1],1279.67 x10E3/uL
same,ALANINE AMINOTRANSFERASE,[1],84.33 u/L
same,ALBUMIN,[1],4.4 G/DL
same,ALKALINE PHOSPHATASE,[1],436.33 u/L
same,ASPARTATE AMINOTRANSFERASE,[1],108 u/L
same,BLOOD UREA NITROGEN,[1],11.33 mg/dL
same,CARBON DIOXIDE,[1],28.33 mmol/L
same,CREATINE PHOSPHOKINASE,[1],307 u/L
same,CREATININE,[1],0.23 mg/dL
same,LACTATE DEHYDROGENASE,[1],227 u/L
same,TOTAL BILIRUBIN,[1],0.1 mg/dL
same,TOTAL PROTEIN,[1],5.3 G/DL
same,URIC ACID,[1],1.47 mg/dL
same,ABSOLUTE BASOPHIL,[2],0 CELLS/uL
same,ABSOLUTE EOSINOPHIL,[2],0 CELLS/uL
same,ABSOLUTE LYMPHOCYTE,[2],6815.67 CELLS/uL
same,ABSOLUTE MONOCYTE,[2],96.33 CELLS/uL
same,ABSOLUTE SEGMENTED NEUTROPHIL,[2],721.33 CELLS/uL
same,BASOPHIL,[2],0%
same,EOSINOPHIL,[2],0%
same,ERYTHROCYTE COUNT,[2],5.68 x10E6/uL
same,HEMATOCRIT,[2],34.5%
same,HEMOGLOBIN,[2],13.47 G/DL
same,LYMPHOCYTE,[2],90%
same,MEAN CORPUSCULAR HEMOGLOBIN CONCENTRATION,[2],39.07 G/DL
same,MEAN CORPUSCULAR VOLUME,[2],60.77 fL
same,NUCLEATED RED BLOOD CELLS,[2],0 /100WBC
same,PLATELET COUNT,[2],1144.67 x10E3/uL
same,ALANINE AMINOTRANSFERASE,[2],92.67 u/L
same,ALBUMIN,[2],4.8 G/DL
same,ALKALINE PHOSPHATASE,[2],542 u/L
same,ASPARTATE AMINOTRANSFERASE,[2],108.67 u/L
same,BLOOD UREA NITROGEN,[2],9 mg/dL
same,CARBON DIOXIDE,[2],35.67 mmol/L
same,CREATINE PHOSPHOKINASE,[2],436 u/L
same,CREATININE,[2],0.23 mg/dL
same,LACTATE DEHYDROGENASE,[2],185.67 u/L
same,TOTAL BILIRUBIN,[2],0.1 mg/dL
same,TOTAL PROTEIN,[2],5.87 G/DL
same,URIC ACID,[2],0.93 mg/dL
same,ABSOLUTE BASOPHIL,[3],0 CELLS/uL
same,ABSOLUTE EOSINOPHIL,[3],35 CELLS/uL
same,ABSOLUTE LYMPHOCYTE,[3],8585.33 CELLS/uL
same,ABSOLUTE MONOCYTE,[3],165.67 CELLS/uL
same,ABSOLUTE SEGMENTED NEUTROPHIL,[3],847.33 CELLS/uL
same,BASOPHIL,[3],0%
same,EOSINOPHIL,[3],0.33%
same,ERYTHROCYTE COUNT,[3],5.9 x10E6/uL
same,HEMATOCRIT,[3],37.27%
same,LYMPHOCYTE,[3],89.33%
same,MEAN CORPUSCULAR HEMOGLOBIN CONCENTRATION,[3],38.8 G/DL
same,MEAN CORPUSCULAR VOLUME,[3],63.17 fL
same,NUCLEATED RED BLOOD CELLS,[3],0 /100WBC
same,PLATELET COUNT,[3],1091.33 x10E3/uL
same,ALANINE AMINOTRANSFERASE,[3],125.33 u/L
same,ALBUMIN,[3],3.57 G/DL
same,ALKALINE PHOSPHATASE,[3],509.67 u/L
same,ASPARTATE AMINOTRANSFERASE,[3],123.67 u/L
same,BLOOD UREA NITROGEN,[3],12 mg/dL
same,CARBON DIOXIDE,[3],25.67 mmol/L
same,CREATINE PHOSPHOKINASE,[3],211 u/L
same,CREATININE,[3],0.21 mg/dL
same,LACTATE DEHYDROGENASE,[3],138.33 u/L
same,TOTAL BILIRUBIN,[3],0.23 mg/dL
same,TOTAL PROTEIN,[3],4.8 G/DL
same,URIC ACID,[3],0.57 mg/dL
same,ABSOLUTE BASOPHIL,[4],0 CELLS/uL
same,ABSOLUTE EOSINOPHIL,[4],84 CELLS/uL
same,ABSOLUTE LYMPHOCYTE,[4],7042 CELLS/uL
same,ABSOLUTE MONOCYTE,[4],80.5 CELLS/uL
same,ABSOLUTE SEGMENTED NEUTROPHIL,[4],843.5 CELLS/uL
same,BASOPHIL,[4],0%
same,EOSINOPHIL,[4],1%
same,ERYTHROCYTE COUNT,[4],5.34 x10E6/uL
same,HEMATOCRIT,[4],33.8%
same,HEMOGLOBIN,[4],13.3 G/DL
same,LYMPHOCYTE,[4],87.5%
same,MEAN CORPUSCULAR HEMOGLOBIN CONCENTRATION,[4],39.35 G/DL
same,MEAN CORPUSCULAR VOLUME,[4],63.4 fL
same,NUCLEATED RED BLOOD CELLS,[4],0 /100WBC
same,PLATELET COUNT,[4],1064.5 x10E3/uL
same,ALANINE AMINOTRANSFERASE,[4],87.5 u/L
same,ALBUMIN,[4],4.65 G/DL
same,ALKALINE PHOSPHATASE,[4],418.5 u/L
same,ASPARTATE AMINOTRANSFERASE,[4],104.5 u/L
same,BLOOD UREA NITROGEN,[4],13 mg/dL
same,CARBON DIOXIDE,[4],27 mmol/L
same,CREATINE PHOSPHOKINASE,[4],307 u/L
same,CREATININE,[4],0.31 mg/dL
same,LACTATE DEHYDROGENASE,[4],104 u/L
same,TOTAL BILIRUBIN,[4],0.15 mg/dL
same,TOTAL PROTEIN,[4],5.5 G/DL
same,URIC ACID,[4],0.6 mg/dL
same,ABSOLUTE BASOPHIL,[5],0 CELLS/uL
same,ABSOLUTE EOSINOPHIL,[5],44 CELLS/uL
same,ABSOLUTE LYMPHOCYTE,[5],10937 CELLS/uL
same,ABSOLUTE MONOCYTE,[5],410.5 CELLS/uL
same,ABSOLUTE SEGMENTED NEUTROPHIL,[5],2833.5 CELLS/uL
same,BASOPHIL,[5],0%
same,EOSINOPHIL,[5],0.25%
same,ERYTHROCYTE COUNT,[5],6.03 x10E6/uL
same,HEMATOCRIT,[5],37.23%
same,HEMOGLOBIN,[5],15.3 G/DL
same,LYMPHOCYTE,[5],75.75%
same,MEAN CORPUSCULAR HEMOGLOBIN CONCENTRATION,[5],41.35 G/DL
same,MEAN CORPUSCULAR VOLUME,[5],61.7 fL
same,NUCLEATED RED BLOOD CELLS,[5],0 /100WBC
same,PLATELET COUNT,[5],961.5 x10E3/uL
same,ALANINE AMINOTRANSFERASE,[5],233.5 u/L
same,ALBUMIN,[5],4.15 G/DL
same,ALKALINE PHOSPHATASE,[5],474.75 u/L
same,ASPARTATE AMINOTRANSFERASE,[5],132.75 u/L
same,BLOOD UREA NITROGEN,[5],13 mg/dL
same,CARBON DIOXIDE,[5],29 mmol/L
same,CREATINE PHOSPHOKINASE,[5],233.75 u/L
same,CREATININE,[5],0.14 mg/dL
same,LACTATE DEHYDROGENASE,[5],160.5 u/L
same,TOTAL BILIRUBIN,[5],0.28 mg/dL
same,TOTAL PROTEIN,[5],5.55 G/DL
same,ABSOLUTE BASOPHIL,[6],0 CELLS/uL
same,ABSOLUTE EOSINOPHIL,[6],0 CELLS/uL
same,ABSOLUTE LYMPHOCYTE,[6],6863 CELLS/uL
same,ABSOLUTE MONOCYTE,[6],370.5 CELLS/uL
same,ABSOLUTE SEGMENTED NEUTROPHIL,[6],5116.5 CELLS/uL
same,BASOPHIL,[6],0%
same,EOSINOPHIL,[6],0%
same,ERYTHROCYTE COUNT,[6],6.05 x10E6/uL
same,HEMATOCRIT,[6],35.15%
same,HEMOGLOBIN,[6],13.8 G/DL
same,LYMPHOCYTE,[6],55.5%
same,MEAN CORPUSCULAR HEMOGLOBIN CONCENTRATION,[6],39.4 G/DL
same,MEAN CORPUSCULAR VOLUME,[6],57.6 fL
same,NUCLEATED RED BLOOD CELLS,[6],2 /100WBC
same,PLATELET COUNT,[6],1590.5 x10E3/uL
same,ALANINE AMINOTRANSFERASE,[6],283.5 u/L
same,ALBUMIN,[6],3 G/DL
same,ALKALINE PHOSPHATASE,[6],812 u/L
same,ASPARTATE AMINOTRANSFERASE,[6],328 u/L
same,BLOOD UREA NITROGEN,[6],63 mg/dL
same,CARBON DIOXIDE,[6],25 mmol/L
same,CREATINE PHOSPHOKINASE,[6],1456.5 u/L
same,CREATININE,[6],0.58 mg/dL
same,LACTATE DEHYDROGENASE,[6],638 u/L
same,TOTAL BILIRUBIN,[6],2.9 mg/dL
same,TOTAL PROTEIN,[6],5.7 G/DL
